Experiments:
P. acnes (CCUG 1794T) = test: MMC99 assay, P. acnes; format: cell-based
Protocol: (§1) The antimicrobial effects of the peptides 232 (SEQ ID NO: 78), and 220 (SEQ ID NO:67) were analysed by MMC99 (minimal microbicidal concentration) assay against S. aureus (CCUG 1800), MRSA (CCUG 41879), P. aeruginosa (ATCC 15442), E. coli (CCUG 31246), S. pyogenes (CCUG 4207), P. acnes (CCUG 1794T), S. epidermidis (ATCC12228), K. pneumoniae (ATCC 13883), A. baumannii (ATCC 19606), and C. albicans (ATCC 64549). The peptides were purchased from Biopeptide Company (San Diego, Calif., USA) and Bachem AG (Bubendorf, Switzerland) and results are presented in Table 8A and 8B respectively.
(§2) Peptides were serially diluted in two different assay medium, 1% BHI medium (brain-heart infusion medium) or 50% heat inactivated simulated wound fluid (SWF), and thereafter incubated with the microorganisms for 2 hours. Drops of the suspension were placed on blood agar plates. The MMC99 values, i.e. the lowest peptide concentration needed to achieve a 99% reduction of viable microorganisms, were recorded. As presented in Table 8, all the peptides have the ability to kill microorganisms frequently appearing in infections.

[1] = system: P. aeruginosa (ATCC 15442); test: MMC99 assay, P. aeruginosa; format: cell-based
Protocol: as §1, §2

[2] = system: TNF-α production in LPS stimulated THP-1 cells; test: Inhibition of TNF-α production in LPS stimulated THP-1 cells (ELISA); format: cell-based, human; settings: screen 2, mean relative secretion, basal = 0%; for TNF-α at 4 μM peptide / TNF-α at 10 μM peptide: stimulated = 100%; for TNF-α at 40 μM peptide: LPS-stimulated level without peptide = 100%
Protocol: (§3) After 6 hours of incubation at +37° C., 5% CO2 and in a humid atmosphere, the cell supernatants were collected, centrifuged and kept frozen in −20° C. until analyzed for TNF-α content by ELISA (R&D Systems, Minneapolis, Minn., USA). The results are presented as mean relative secretion (%), with stimulated TNF-α level without peptide added set to 100% and basal secretion set to 0% (Table 2).
as §3, with “incubation,” for “incubation at +37° C., 5% CO2 and in a humid atmosphere,”, “centrifuged,” for “centrifuged”, “5).” for “2).”

E. coli (CCUG 31246) = test: MMC99 assay, E. coli; format: cell-based
Protocol: as §1, §2

[3] = system: K. pneumoniae (ATCC 13883); test: MMC99 assay, K. pneumoniae; format: cell-based
Protocol: as §1, §2

[4] = system: S. epidermidis (ATCC12228); test: MMC99 assay, S. epidermidis; format: cell-based
Protocol: as §1, §2

[5] = system: A. baumannii (ATCC 19606); test: MMC99 assay, A. baumannii; format: cell-based
Protocol: as §1, §2

C. albicans (ATCC 64549) = test: MMC99 assay, C. albicans; format: cell-based
Protocol: as §1, §2

QSLARKLFQWLRNLRKVA [Peptide 220]
MMC99 (P. acnes (CCUG 1794T); 1% BHI): <3 µg/mL
MMC99 (P. acnes (CCUG 1794T); 50% SWF): 100 µg/mL
MMC99 ([1]; 1% BHI): 7 µg/mL
MMC99 ([1]; 50% SWF): >200 µg/mL
TNF-α at 4 μM peptide [2]: 70.8%
TNF-α at 10 μM peptide [2]: 37.0%
TNF-α at 40 μM peptide [2]: 11.6%
MMC99 (E. coli (CCUG 31246); 1% BHI): 3 µg/mL
MMC99 (E. coli (CCUG 31246); 50% SWF): >200 µg/mL

RRLWRRWMRKVL [Peptide 232]
MMC99 ([3]; 1% BHI): 6 µg/mL
MMC99 ([3]; 50% SWF): >200 µg/mL
MMC99 ([4]; 1% BHI): 3 µg/mL
MMC99 ([4]; 50% SWF): 50 µg/mL
MMC99 (P. acnes (CCUG 1794T); 1% BHI): 6 µg/mL
MMC99 (P. acnes (CCUG 1794T); 50% SWF): >200 µg/mL
MMC99 ([5]; 1% BHI): 3 µg/mL
MMC99 ([5]; 50% SWF): 200 µg/mL
MMC99 ([1]; 1% BHI): 5 µg/mL
MMC99 ([1]; 50% SWF): >176 µg/mL
TNF-α at 4 μM peptide [2]: 96.9%
TNF-α at 10 μM peptide [2]: 66.6%
TNF-α at 40 μM peptide [2]: 33.2%
MMC99 (E. coli (CCUG 31246); 1% BHI): 5 µg/mL
MMC99 (E. coli (CCUG 31246); 50% SWF): >176 µg/mL
MMC99 (C. albicans (ATCC 64549); 1% BHI): 3 µg/mL
MMC99 (C. albicans (ATCC 64549); 50% SWF): 50 µg/mL

From patent US20140031296A1, “NEW SYNTHETIC PEPTIDES AND THEIR USE” (PERGAMUM AB, priority 2011, published 2014)
